Assays:
[1] = target: T1, Purified recombinant ADAMTS-7 (rat prodomain/human catalytic domain, SEQ ID No. 01 or 02) (Homo sapiens, UniProt Q9UKP4); assay: Assay for ADAMTS-7 enzymatic activity (FRET substrate cleavage); format: biochemical; settings: FRET substrate SEQ ID No. 11, 120 min at 32° C.; read-out: ADAMTS7-IC50
T1 construct: rat ADAMTS-7 signal peptide + prodomain (rat 1-217, Q1EHB3) (N); 2xStrep tag (C); 6xHis tag (C); made in house; host or cells: Expi293 cells
T1 sequence (Q9UKP4 237-537): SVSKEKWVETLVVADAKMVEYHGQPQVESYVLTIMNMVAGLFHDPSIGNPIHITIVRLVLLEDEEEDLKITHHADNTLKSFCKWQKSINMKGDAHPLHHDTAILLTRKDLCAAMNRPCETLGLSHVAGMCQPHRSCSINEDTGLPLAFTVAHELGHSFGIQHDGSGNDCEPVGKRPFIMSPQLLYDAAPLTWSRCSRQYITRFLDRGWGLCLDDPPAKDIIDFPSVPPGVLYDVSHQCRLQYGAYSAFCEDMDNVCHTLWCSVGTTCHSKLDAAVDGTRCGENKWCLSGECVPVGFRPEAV
Description: Purified recombinant ADAMTS-7 (as of SEQ ID No. 01 or SEQ ID No. 02) was diluted in reaction buffer (20 mM HEPES pH 8.0, 150 mM NaCl, 5 mM CaCl2, 0.004% Brij, 10 μM ZnCl2) fora concentration of approximately 20 nM. 25 μl of the solution were transferred into each well of a 384-well white microtiter plate (Greiner Bio-One 781075) and 1 μl test compound solution (modulator/inhibitor dissolved in DMSO, at the corresponding concentration) or pure DMSO as a control were added per well. […] Amino acids […] are derived from Thrombospondin-1 sequence (275-289). An additional carboxyl glutamic acid was added after the QXL520 quencher to increase substrate solubility. The microtiter plate was incubated for 120 min at the temperature of 32° C. The increase of fluorescence intensity was measured in appropriate fluorescence plate reader (e.g. TECAN Ultra) using excitation wavelength of 485 nm and emission wavelength of 520 nm. IC50 values were calculated from percentage of inhibition of ADAMTS-7 activity as a function of test compound concentration.

[2] = target: T2, ADAMTS4 (Homo sapiens, UniProt O75173); assay: Selectivity assay for ADAMTS-7 modulators (FRET), ADAMTS4; format: biochemical; settings: 50 nM enzyme (R&D 4307-AD), 1 μM Dabcyl/Edans FRET substrate, 120 min at 32° C.
T2 construct: purchased R&D 4307-AD
T2 sequence (O75173 213-685 limits assumed): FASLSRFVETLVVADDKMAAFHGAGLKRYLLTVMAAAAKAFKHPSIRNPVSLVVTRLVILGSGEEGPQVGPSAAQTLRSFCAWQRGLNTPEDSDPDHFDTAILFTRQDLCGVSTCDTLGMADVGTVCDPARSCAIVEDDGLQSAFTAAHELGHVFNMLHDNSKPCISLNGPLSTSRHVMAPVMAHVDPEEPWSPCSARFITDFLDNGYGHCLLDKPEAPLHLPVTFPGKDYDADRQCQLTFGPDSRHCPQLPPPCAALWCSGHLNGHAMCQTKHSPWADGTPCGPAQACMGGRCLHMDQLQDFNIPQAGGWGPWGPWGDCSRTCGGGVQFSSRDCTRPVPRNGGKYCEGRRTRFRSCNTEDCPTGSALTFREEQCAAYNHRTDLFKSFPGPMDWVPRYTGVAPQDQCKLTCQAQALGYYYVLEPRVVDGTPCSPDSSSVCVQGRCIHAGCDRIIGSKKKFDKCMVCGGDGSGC
Description: The respective enzyme (see table 2 below) was diluted in reaction buffer (50 mM Tris, 2.5 μM ZnCl2, 0.05% BSA, 0.001% Brij, pH 7.5 for ADAM17; 50 mM Tris 7.5, 150 mM NaCl, 10 mM CaCl2, 0.05% Brij for all other enzymes) to the respective concentration and 25 μl were transferred into each well of a 384-well white microtiter plate (Greiner Bio One 781075). 1 μl test compound solution (dissolved in DMSO, at the corresponding concentration) or pure DMSO as a control was added per well. The enzymatic reaction was initiated by addition of 25 μl of the respective concentration of the respective FRET substrate (see table 2 below) in reaction buffer. The microtiter plate was incubated for 120 min at the temperature of 32° C. The increase of fluorescence intensity was measured in appropriate fluorescence plate reader (e.g. TECAN Ultra) using the respective wavelengths for excitation and emission. IC50 values were calculated from percentage of inhibition of enzyme activity as a function of test compound concentration.

| SMILES | IC50 [1] [µM] | IC50 [2] [µM] |
| --- | --- | --- |
| O=C1NC(=O)C(CNC(=O)c2cnn(-c3ccccc3)n2)(CC2CC2)N1 (racemic) [Example 54, rac-N-[(4-(cyclopropylmethyl)-2,5-dioxoimidazolidin-4-yl)methyl}]-2-phenyl-2H-1,2,3-triazole-4-carboxamide] | 0.67 | 25 |
| CCCC1(CNC(=O)c2cnn(-c3ccccc3)n2)NC(=O)NC1=O (racemic) [Example 55, rac-N-[(2,5-dioxo-4-propylimidazolidin-4-yl)methyl]-2-phenyl-2H-1,2,3-triazole-4-carboxamide] | 0.24 | 19 |
| CC(C)(C)C1(CNC(=O)c2cnn(-c3ccccc3)c2)NC(=O)NC1=O (racemic) [Example 58, rac-N-[4-tert-butyl-2,5-dioxoimidazolidin-4-yl)methyl]-1-phenyl-1H-pyrazole-4-carboxamide] | 0.55 | 5.6 |
| O=C1NC(=O)C(CNC(=O)c2cnn(-c3ccccc3)n2)(C2CCOCC2)N1 (racemic) [Example 61, rac-N-[(4-(oxan-4-yl)-2,5-dioxoimidazolidin-4-yl)methyl]-2-phenyl-2H-1,2,3-triazole-4-carboxamide] | 0.128 | 9.95 |
| CCCC1(CNC(=O)c2cnn(-c3ccc(F)cc3)n2)NC(=O)NC1=O (racemic) [Example 65, rac-N-[(2,5-dioxo-4-propylimidazolidin-4-yl)methyl]-2-(4-fluorophenyl)-2H-1,2,3-triazole-4-carboxamide] | 0.17 | 19 |
| O=C1NC(=O)C(CNC(=O)c2cnn(-c3ccc(F)cc3)n2)(C2CCOCC2)N1 (racemic) [Example 67, rac-2-(4-fluorophenyl)-N-[4-(oxan-4-yl)-2,5-dioxoimidazolidin-4-yl)methyl]-2H-1,2,3-triazole-4-carboxamide] | 0.26 | 9.3 |
| CCCCC1(CNC(=O)c2cnn(-c3ccc(F)cc3)n2)NC(=O)NC1=O (racemic) [Example 68, rac-N-[(4-butyl-2,5-dioxoimidazolidin-4-yl)methyl]-2-(4-fluorophenyl)-2H-1,2,3-triazole-4-carboxamide] | 0.12 | 8.3 |
| O=C1NC(=O)C(CNC(=O)c2cnn(-c3ccc(F)cc3)n2)(C2CCC2)N1 (racemic) [Example 69, rac-N-[(4-cyclobutyl-2,5-dioxoimidazolidin-4-yl)methyl]-2-(4-fluorophenyl)-2H-1,2,3-triazole-4-carboxamide] | 0.098 | 35 |
| CC(C)C1(CNC(=O)c2cnn(-c3ccc(F)cc3F)n2)NC(=O)NC1=O (racemic) [Example 87, rac-2-(2,4-difluorophenyl)-N-[(4-isopropyl-2,5-dioxoimidazolidin-4-yl)methyl]-2H-1,2,3-triazole-4-carboxamide] | 0.098 | 20 |
| CC(C)C1(CNC(=O)c2cnn(-c3cccc(C#N)c3)n2)NC(=O)NC1=O (racemic) [Example 120, rac-2-(3-cyanophenyl)-N-[(4-isopropyl-2,5-dioxoimidazolidin-4-yl)methyl]-2H-1,2,3-triazole-4-carboxamide] | 0.17 | 6 |

Compounds with a lower IC50 [1], results first:

| IC50 [1] [µM] | IC50 [2] [µM] | SMILES |
| --- | --- | --- |
| 0.042 | 16 | CC(C)C1(CNC(=O)c2cnn(-c3ccc(F)cc3)n2)NC(=O)NC1=O (racemic) [Example 62, rac-N-[(2,5-dioxo-4-(propan-2-yl)imidazolidin-4-yl)methyl]-2-(4-fluorophenyl)-2H-1,2,3-triazole-4-carboxamide] |
| 0.069 | 6 | CC(C)(C)C1(CNC(=O)c2cnn(-c3ccc(F)cc3)n2)NC(=O)NC1=O (racemic) [Example 63, rac-N-[(4-tert-butyl-2,5-dioxoimidazolidin-4-yl)methyl]-2-(4-fluorophenyl)-2H-1,2,3-triazole-4-carboxamide] |
| 0.052 | 6 | CC(C)C1(CNC(=O)c2cnn(-c3cc(F)c(F)c(F)c3)n2)NC(=O)NC1=O (racemic) [Example 99, rac-N-[(4-isopropyl-2,5-dioxoimidazolidin-4-yl)methyl]-2-(3,4,5-trifluorophenyl)-2H-1,2,3-triazole-4-carboxamide] |
| 0.008 | 0.68 | Cc1scnc1C1(CNC(=O)c2cnn(-c3ccc(F)cc3)n2)NC(=O)NC1=O (racemic) [Example 100, rac-2-(4-fluorophenyl)-N-{[4-(5-methyl-1,3-thiazol-4-yl)-2,5-dioxoimidazolidin-4-yl]methyl}-2H-1,2,3-triazole-4-carboxamide] |
| 0.012 | 0.6 | O=C1NC(=O)C(CNC(=O)c2cnn(-c3cccc(F)c3)n2)(c2nccs2)N1 (racemic) [Example 108, rac-N-{[2,5-dioxo-4-(1,3-thiazol-2-yl)imidazolidin-4-yl]methyl}-2-(3-fluorophenyl)-2H-1,2,3-triazole-4-carboxamide] |
| 0.019 | 1.1 | O=C1NC(=O)C(CNC(=O)c2cnn(-c3ccc(Cl)c(F)c3)n2)(c2nccs2)N1 (racemic) [Example 109, rac-2-(4-chloro-3-fluorophenyl)-N-{[2,5-dioxo-4-(1,3-thiazol-2-yl)imidazolidin-4-yl]methyl}-2H-1,2,3-triazole-4-carboxamide] |
| 0.035 | 1.2 | O=C1NC(=O)C(CNC(=O)c2cnn(-c3ccc(F)c(Cl)c3)n2)(c2nccs2)N1 (racemic) [Example 111, rac-2-(3-chloro-4-fluorophenyl)-N-{[2,5-dioxo-4-(1,3-thiazol-2-yl)imidazolidin-4-yl]methyl}-2H-1,2,3-triazole-4-carboxamide] |
| 0.039 | 2.4 | O=C1NC(=O)C(CNC(=O)c2cnn(-c3ccc(F)cc3)n2)(c2nccs2)N1 (racemic) [Example 113, rac-N-{[2,5-dioxo-4-(1,3-thiazol-2-yl)imidazolidin-4-yl]methyl}-2-(4-fluorophenyl)-2H-1,2,3-triazole-4-carboxamide] |
| 0.087 | 6.6 | O=C1NC(=O)C(CNC(=O)c2cnn(-c3ccc(F)cc3F)n2)(c2nccs2)N1 (racemic) [Example 115, rac-2-(2,4-difluorophenyl)-N-{[2,5-dioxo-4-(1,3-thiazol-2-yl)imidazolidin-4-yl]methyl}-2H-1,2,3-triazole-4-carboxamide] |
| 0.046 | 4.5 | CC(C)C1(CNC(=O)c2cnn(-c3cccc(F)c3)n2)NC(=O)NC1=O (racemic) [Example 118, rac-2-(3-fluorophenyl)-N-[(4-isopropyl-2,5-dioxoimidazolidin-4-yl)methyl]-2H-1,2,3-triazole-4-carboxamide] |
| 0.011 | 2.5 | CC(C)C1(CNC(=O)c2cnn(-c3ccc(F)c(F)c3)n2)NC(=O)NC1=O (racemic) [Example 122, rac-2-(3,4-difluorophenyl)-N-[(4-isopropyl-2,5-dioxoimidazolidin-4-yl)methyl]-2H-1,2,3-triazole-4-carboxamide] |
| 0.013 | 2.8 | CC(C)C1(CNC(=O)c2cnn(-c3ccc(Cl)c(F)c3)n2)NC(=O)NC1=O (racemic) [Example 124, rac-2-(4-chloro-3-fluorophenyl)-N-[(4-isopropyl-2,5-dioxoimidazolidin-4-yl)methyl]-2H-1,2,3-triazole-4-carboxamide] |

— patent US20230027985A1, “SUBSTITUTED HYDANTOINAMIDES AS ADAMTS7 ANTAGONISTS” (Bayer Aktiengesellschaft, priority 2019, published 2023)
